Data published in patent US10576085B2, “Substituted aminopurine compounds, compositions thereof, and methods of treatment therewith” (Signal Pharmaceuticals, LLC, priority 2016, dated 2020).

System: cancer cell lines of Table 2
Assay: Multiplexed cytotoxicity assay: apoptosis (activated caspase-3; Cal_X2, Cal_X5, Max_Fold_Change)
Type: cell-based
Protocol: Cells are grown in RPMI1640, 10% FBS, 2 mM L-alanyl-L-Glutamine, 1 mM Na pyruvate or a special medium in a humidified atmosphere of 5% CO2 at 37° C. Cells are seeded into 384-well plates and incubated in a humidified atmosphere of 5% CO2 at 37° C. Compounds are added 24 h post cell seeding. At the same time, a time zero untreated cell plate is generated. After a 72 hour incubation period, cells are fixed and stained with fluorescently labeled antibodies and nuclear dye to allow visualization of nuclei, apoptotic cells and mitotic cells. Apoptotic cells are detected using an anti-active caspase-3 antibody. Mitotic cells are detected using an anti phospho-histone-3 antibody. Compounds are serially diluted 3.16-fold and assayed over 10 concentrations in a final assay concentration of 0.1% DMSO from the highest test concentration of 10 μM. Automated fluorescence microscopy was carried out using a Molecular Devices ImageXpress Micro XL high-content imager, and images are collected with a 4× objective.
The activated caspase-3 marker labels cells from early to late stage apoptosis. Concentrations of test compound that cause a 5-fold induction in the caspase-3 signal (Cal_X5) indicate significant apoptosis induction. The maximal induction of caspase 3 by compound in comparison with DMSO control is reported as Max_Fold_Change.
In Another Experiment, Cells were Grown in RPMI1640, 10% FBS, 2 mM L-alanyl-L-Glutamine, 1 mM Na pyruvate or a special medium in a humidified atmosphere of 5% CO2 at 37° C. Cells were seeded into 384-well plates and incubated in a humidified atmosphere of 5% CO2 at 37° C. Compounds were added 24 h post cell seeding. At the same time, a time zero untreated cell plate was generated. After a 72 hour incubation period, cells were fixed and stained with fluorescently labeled antibodies and nuclear dye to allow visualization of nuclei, apoptotic cells and mitotic cells. Apoptotic cells were detected using an anti-active caspase-3 antibody. Mitotic cells were detected using an anti phospho-histone-3 antibody. Compounds were serially diluted 3.16-fold and assayed over 10 concentrations in a final assay concentration of 0.1% DMSO from the highest test concentration of 10 μM. Automated fluorescence microscopy was carried out using a Molecular Devices ImageXpress Micro XL high-content imager, and images were collected with a 4× objective.
The activated caspase-3 marker labels cells from early to late stage apoptosis. Concentrations of test compound that cause a 2-fold (Cal-X2) or 5-fold induction in the caspase-3 signal (Cal_X5) indicated significant apoptosis induction. The maximal induction of caspase 3 by compound in comparison with DMSO control was reported as Max_Fold_Change.

For `C[C@]1(C(N)=O)CC[C@@H](n2c(Nc3c(Cl)cc(Cl)cc3Cl)nc3cnc(N[C@@H]4CCOC[C@H]4F)nc32)CC1` [Compound 1, cis-4-[2-{[(3S,4R)-3-fluorooxan-4-yl]amino}-8-(2,4,6-trichloroanilino)-9H-purin-9-yl]-1-methyl cyclohexane-1-carboxamide], the CalX2 (HS611T, Lymphoma) was 2.8507 µM, the CalX5 (HS611T, Lymphoma) was 10 µM and the Max fold change (HS611T, Lymphoma) was 3.84. The CalX2 (HS688AT, Skin, Melanoma) was 10 µM, the CalX5 (HS688AT, Skin, Melanoma) was 10 µM and the Max fold change (HS688AT, Skin, Melanoma) was 1.61. For the same compound, the CalX2 (HS695T, Skin, Melanoma) was 0.0253 µM, the CalX5 (HS695T, Skin, Melanoma) was 0.0727 µM and the Max fold change (HS695T, Skin, Melanoma) was 22.05. It also gave a CalX2 (HS852T, Skin, Melanoma) of 0.05 µM, a CalX5 (HS852T, Skin, Melanoma) of 0.234 µM and a Max fold change (HS852T, Skin, Melanoma) of 6.51. For the same compound, the CalX2 (HT1197, Bladder) was 0.1601 µM, the CalX5 (HT1197, Bladder) was 10 µM and the Max fold change (HT1197, Bladder) was 4.16. The CalX2 (HT1376, Bladder) was 0.0524 µM, the CalX5 (HT1376, Bladder) was 0.167 µM and the Max fold change (HT1376, Bladder) was 10.87. It also gave a CalX2 (HT, Lymphoma) of 8.6354 µM, a CalX5 (HT, Lymphoma) of 10 µM and a Max fold change (HT, Lymphoma) of 2.44. For the same compound, the CalX2 (HUCCT1, Liver) was 0.0222 µM, the CalX5 (HUCCT1, Liver) was 0.0406 µM and the Max fold change (HUCCT1, Liver) was 11.54. It also gave a CalX2 (HUH6CLONE5, Liver) of 0.0631 µM, a CalX5 (HUH6CLONE5, Liver) of 0.302 µM and a Max fold change (HUH6CLONE5, Liver) of 8.25. For the same compound, the CalX2 (J82, Bladder) was 2.4365 µM, the CalX5 (J82, Bladder) was 10 µM and the Max fold change (J82, Bladder) was 3.17. It also gave a CalX2 (JEKO1, Lymphoma) of 4.3369 µM, a CalX5 (JEKO1, Lymphoma) of 10 µM and a Max fold change (JEKO1, Lymphoma) of 3.11. The CalX2 (JIYOYE, Lymphoma) was 4.4004 µM, the CalX5 (JIYOYE, Lymphoma) was 5.35 µM and the Max fold change (JIYOYE, Lymphoma) was 11.1. For the same compound, the CalX2 (JRT3T35, Leukemia) was 2.6364 µM, the CalX5 (JRT3T35, Leukemia) was 3.8 µM and the Max fold change (JRT3T35, Leukemia) was 14.26. It also gave a CalX2 (JURKAT, Leukemia) of 1.6173 µM, a CalX5 (JURKAT, Leukemia) of 3.28 µM and a Max fold change (JURKAT, Leukemia) of 14.48. It also gave a CalX2 (K562, Leukemia) of 2.9298 µM, a CalX5 (K562, Leukemia) of 4.86 µM and a Max fold change (K562, Leukemia) of 51.89. The CalX2 (KG1, Leukemia) was 2.5811 µM, the CalX5 (KG1, Leukemia) was 10 µM and the Max fold change (KG1, Leukemia) was 2.5. For the same compound, the CalX2 (KU812, Leukemia) was 0.03 µM, the CalX5 (KU812, Leukemia) was 8.02 µM and the Max fold change (KU812, Leukemia) was 5.63. For the same compound, the CalX2 (L428, Lymphoma) was 4.2384 µM, the CalX5 (L428, Lymphoma) was 5.88 µM and the Max fold change (L428, Lymphoma) was 7.51. It also gave a CalX2 (MC116, Lymphoma) of 2.8763 µM, a CalX5 (MC116, Lymphoma) of 5.18 µM and a Max fold change (MC116, Lymphoma) of 9.46. For the same compound, the CalX2 (MEG01, Leukemia) was 0.5718 µM, the CalX5 (MEG01, Leukemia) was 10 µM and the Max fold change (MEG01, Leukemia) was 2.77. The CalX2 (MHHPREB1, Leukemia) was 5.1142 µM, the CalX5 (MHHPREB1, Leukemia) was 7.66 µM and the Max fold change (MHHPREB1, Leukemia) was 11.43. The CalX2 (MOLT3, Leukemia) was 5.88 µM, the CalX5 (MOLT3, Leukemia) was 10 µM and the Max fold change (MOLT3, Leukemia) was 3.63. For the same compound, the CalX2 (MOLT16, Leukemia) was 2.4102 µM, the CalX5 (MOLT16, Leukemia) was 4.97 µM and the Max fold change (MOLT16, Leukemia) was 8.06. It also gave a CalX2 (MV411, Leukemia) of 0.0933 µM, a CalX5 (MV411, Leukemia) of 1.15 µM and a Max fold change (MV411, Leukemia) of 8.12. It also gave a CalX2 (MX1, Leukemia) of 1.1016 µM, a CalX5 (MX1, Leukemia) of 10 µM and a Max fold change (MX1, Leukemia) of 3.78.
